Activity calls are given as the source filed them. No cut-off for these calls is given here.

This is an account of results in ChEMBL document CHEMBL5131564, “Discovery of Potent and Selective Receptor-Interacting Serine/Threonine Protein Kinase 2 (RIPK2) Inhibitors for the Treatment of Inflammatory Bowel Diseases (IBDs)” (J Med Chem, 2022).

A short description of data set [1]: Inhibition of LPS/MDP-stimulated TNFalpha production in C57BL/6J mouse BMDM cells by ELISA relative to control. The class given is functional, cell-based. On the technique in general: ELISA stands for enzyme-linked immunosorbent assay.
The nature of data set [2]: Toxicity in rat H9c2 cells assessed as inhibitory rate. The class given is cell-based.
Data set [3] is described as follows: Metabolic stability in human liver microsomes assessed as half life at 1 uM by LC/MS/MS analysis. The class given is ADME, Microsome. (In general: Microsomes from liver hold many membrane-bound enzymes, among them those of drug oxidation.)
The next data set concerns Mus musculus. The experiment in a line: Anti-inflammatory activity against DSS-induced acute ulcerative colitis C57BL/6 mouse model assessed as recovery of weight loss at 20 mg/kg, po for 6 consecutive days. The class given is functional, organism-based.
Data set [4] is described as follows: Toxicity in rat H9c2 cells assessed as inhibitory rate at 10 uM relative to control. The class given is cell-based.
Data set [5] addresses T1, Receptor-interacting serine/threonine-protein kinase 1 (Homo sapiens) (UniProt Q13546).
T1 sequence (whole entry): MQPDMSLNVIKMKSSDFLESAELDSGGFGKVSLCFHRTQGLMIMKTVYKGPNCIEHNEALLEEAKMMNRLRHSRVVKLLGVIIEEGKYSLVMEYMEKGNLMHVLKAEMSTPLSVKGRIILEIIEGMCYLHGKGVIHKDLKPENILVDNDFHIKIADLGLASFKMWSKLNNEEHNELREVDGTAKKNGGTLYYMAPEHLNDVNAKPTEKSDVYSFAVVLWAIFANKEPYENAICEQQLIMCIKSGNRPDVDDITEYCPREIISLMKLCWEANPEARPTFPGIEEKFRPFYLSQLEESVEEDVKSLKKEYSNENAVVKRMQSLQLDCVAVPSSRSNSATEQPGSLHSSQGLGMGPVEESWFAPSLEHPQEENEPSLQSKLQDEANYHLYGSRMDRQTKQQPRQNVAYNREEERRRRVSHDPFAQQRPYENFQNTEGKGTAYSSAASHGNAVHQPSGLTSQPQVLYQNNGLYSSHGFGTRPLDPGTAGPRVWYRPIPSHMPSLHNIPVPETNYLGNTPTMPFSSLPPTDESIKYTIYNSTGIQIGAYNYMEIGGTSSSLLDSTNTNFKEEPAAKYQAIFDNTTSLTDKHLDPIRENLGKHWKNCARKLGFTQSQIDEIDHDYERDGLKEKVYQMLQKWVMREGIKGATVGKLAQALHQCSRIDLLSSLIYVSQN
The experiment in a line: Inhibition of human RIPK1 assessed as active kinase incubated for 120 mins in presence of [gamma33P]ATP at 1000 nM by scintillation counting based radiometry assay relative to control. The arrangement: scale not given: the % may be the effect or the level left.

Data set [6] is described as follows: Inhibition of MDP-stimulated TNFalpha production in mouse RAW264.7 cells at 100 nM incubated for 22 hrs by ELISA relative to control. The class given is functional.
In data set [7] the target is Receptor-interacting serine/threonine-protein kinase 2 (Homo sapiens, UniProt O43353). The experiment in a line: Inhibition of human RIPK2 incubated for 120 mins in presence of [gamma33P]ATP by scintillation counting based radiometry assay.
Sequence of Receptor-interacting serine/threonine-protein kinase 2 (O43353 whole entry): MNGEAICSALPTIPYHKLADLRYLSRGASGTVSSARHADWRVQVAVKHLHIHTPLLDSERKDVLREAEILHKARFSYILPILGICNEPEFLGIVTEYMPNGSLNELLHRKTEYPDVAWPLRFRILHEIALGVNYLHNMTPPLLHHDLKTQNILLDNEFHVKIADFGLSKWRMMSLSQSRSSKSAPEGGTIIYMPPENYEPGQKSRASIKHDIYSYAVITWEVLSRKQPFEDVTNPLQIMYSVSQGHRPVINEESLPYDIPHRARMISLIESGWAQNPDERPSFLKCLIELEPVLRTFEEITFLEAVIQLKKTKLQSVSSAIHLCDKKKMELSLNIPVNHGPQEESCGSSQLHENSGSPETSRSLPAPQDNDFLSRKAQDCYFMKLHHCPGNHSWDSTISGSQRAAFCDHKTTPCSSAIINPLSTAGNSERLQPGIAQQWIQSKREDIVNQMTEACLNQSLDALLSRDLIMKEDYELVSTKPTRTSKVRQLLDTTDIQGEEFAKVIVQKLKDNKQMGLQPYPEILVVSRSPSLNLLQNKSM

In the case of `Cc1ccc(-c2cn([C@H]3CC[C@@H](N)CC3)c3ncnc(N)c23)c(Cl)c1`, the IC50 (as a rule, the point on the concentration scale where inhibition reaches its midpoint) in data set [1] came to 2.3 nM; in data set [2] it was 11400 nM. For the same molecule, in data set [3], the half-life (usually how long it takes for the measured level to halve) at 1 µM was > 120 min. The outcome in the data set with Mus musculus was Active.

Turning to `Cc1ccc(-c2nn(C(C)(C)CNC(=O)c3ccncc3)c3ncnc(N)c23)cc1`, the inhibition (in general, the relative decrease from the control value, in per cent) at 10 µM in data set [4] came out at 50%. The Activity in data set [5] was determined as 95%. For the same molecule, the values for the IC50 in data set [1], in data set [2] and in data set [7] were 57.7 nM, 13100 nM and 33.8 nM, respectively. This molecule gave an inhibition at 0.1 µM in data set [6] of 68%. Besides, the half-life at 1 µM in data set [3] was found to be 33.8 min.
